The record followed here is patent publication US20080287445A1, “Prokineticin 2 receptor antagonists” (priority 2005, published 2008).

The target in this assay is T1, GPR73 (prokineticin 1 receptor) (Homo sapiens, UniProt Q8TCW9).
T1 construct: expressed in transfected cells; host or cells: HEK 293
Put plainly: PK1 functional assay: Ca2+ mobilization screening for PK1 antagonists on the FLIPR. The following applies: HEK 293 GPR73 cells, multiple values = multiple testing; for inhibition at 10 µM: HEK293, 10 μM compound, read-out: Ca^2+ Mobilization % Inh @ 10 μM; for pIC50: PK1 ligand preparation at its EC50, read-out: Ca^2+ Mobilization IC50; for Ca^2+ Mobilization % Inh @ 10 μM: 10 μM compound. Type of assay: cell-based. On the procedure: At a time of 24 h prior to running the assay, in cell culture media (DMEM containing high Glucose and L-glutamine, 10% FBS, 1% Pen/Streptomycin, 1% Sodium Pyruvate, 20 mM HEPES, Zeocin 200 mg/L), 100 μL of 1.3*10^6/ml HEK 293 GPR73 (prokineticin 1 receptor) expressing cells were plated in a 96 well poly-d-lysine coated plate (Costar), and incubated at 37 C and 5% CO2. On the day in which the assay was run, the media was removed and 200 μL of 5× Calcium Plus Dye (Molecular Devices) which was previously resuspended with 200 mL of assay buffer [HBSS w/Ca^2+ and Mg^2+ w/o phenol red, 20 mM HEPES, 0.1% BSA, 10 mL probenecid (710 mg probenecid in 5 mL of 1N NaOH, to which was then added 5 mL HBSS containing 20 mM HEPES)] was added to each well of the 96-well plate. The plate was incubated at 37 C and 5% CO2 for 30 min in dark. The plate was removed and allowed to reach RT for 15 min in the dark. The assay was then run on the FLIPR. In Brief: base line read for 1 min, compound added (25 μL) and incubated for 4 min, 15 seconds, PK1 ligand preparation added (25 μL) for a final concentration of a previously determined EC50 and fluorescence was counted for 1 min, 45 seconds. Baseline is described as the amount of relative fluorescence read when buffer alone is added to cells. Baseline was subtracted from all wells. Percent of control was calculated as follows:
(Baseline subtracted well value is divided by baseline subtracted max value)*100. Percent inhibition is 100 minus the percent of control value.
The IC50 is defined as the amount of a given compound required to inhibit 50% of the maximum signal that is generated by the concentration of PK1 preparation used in our assay. IC50 values were calculated using GraphPad Prism.
For orientation: Calcium assays in cells follow changes in intracellular calcium, usually with a dye or a luminescent sensor.

pIC50: −log10 of the molar value. “And” between values parts separate entries of the source, which are not always exact repeats. Equal values may be shown once. Where only a bound is given, the exact number is not on record here.

T1 sequence (Q8TCW9 whole entry, species assumed): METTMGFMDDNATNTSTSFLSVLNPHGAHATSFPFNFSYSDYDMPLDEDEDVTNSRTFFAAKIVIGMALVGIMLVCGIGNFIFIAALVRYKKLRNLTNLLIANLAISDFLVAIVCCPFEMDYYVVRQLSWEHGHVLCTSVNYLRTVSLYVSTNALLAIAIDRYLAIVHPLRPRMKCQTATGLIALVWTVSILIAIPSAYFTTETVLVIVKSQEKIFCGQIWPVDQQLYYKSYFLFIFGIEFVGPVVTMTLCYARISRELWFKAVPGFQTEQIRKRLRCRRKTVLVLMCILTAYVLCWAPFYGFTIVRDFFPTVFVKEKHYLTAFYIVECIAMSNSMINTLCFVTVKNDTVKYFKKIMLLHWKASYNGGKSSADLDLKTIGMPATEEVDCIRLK

One may read the pIC50 as −log10 of the IC50, conventionally taken in molar units. Take `COc1ccc(Cn2c(NCc3ccc[n+]([O-])c3N)nc(=O)n(Cc3ccc(OC)cc3)c2=O)cc1` [Cpd 32]: the inhibition at 10 µM came to 78% and the pIC50 is 5.91.
Regarding `CSc1ccc(Cn2c(=O)nc(NCc3c(C)cc(C)nc3N)n(Cc3ccc(OC(F)F)cc3)c2=O)cc1` [Cpd 173], the inhibition at 10 µM was 97% and the negative logarithm of the IC50 (pIC50) is 6.68.
Turning to `COc1ccc(Cn2c(=O)nc(NCc3cccnc3N)n(Cc3ccc4[nH]ccc4c3)c2=O)cc1` [Cpd 127], the inhibition at 10 µM is 81% and the pIC50 is 6.22.
On the same counts, the results for `COc1ccc(Cn2c(=O)nc(NCc3cnc(C)cc3C)n(Cc3ccc(OC)nc3)c2=O)cc1` [Cpd 104] are 96% and 6.71.
As for `Cc1cc(C)c(CNc2nc(=O)n(Cc3ccc(I)cc3)c(=O)n2Cc2ccc(OC(F)F)cc2)cn1` [Cpd 159], the inhibition at 10 µM stood at 31% and the negative-log IC50 (pIC50) was below 5.00.
In the case of `COCCCCCn1c(NCc2c(C)cc(C)nc2N)nc(=O)n(Cc2ccc(Cl)cc2)c1=O` [Cpd 253], the inhibition at 10 µM turned out to be 97% and the pIC50 was 8.05.
Turning to `CC(=O)Oc1ccc(Cn2c(=O)nc(NCc3cnc(C)cc3C)n(Cc3ccc(OC(F)F)cc3)c2=O)cc1` [Cpd 182], the inhibition at 10 µM was found to be 55% and the pIC50 is 5.07.
Turning to `COc1ccc(Cn2c(=O)nc(NCc3cccnc3N)n(Cc3ccc(OC)cc3OC)c2=O)cc1` [Cpd 200], the inhibition at 10 µM was 87% and the negative-log IC50 (pIC50) is 6.52.
On the same counts, the results for `COc1ccc(Cn2c(=O)nc(NCc3cccnc3N)n(Cc3ccc(OC(F)F)cc3)c2=O)cc1` [Cpd 35, 6-[(2-Amino-pyridin-3-ylmethyl)-amino]-1-(4-difluoromethoxy-benzyl)-3-(4-methoxy-benzyl)-1H-[1,3,5]triazine-2,4-dione] are 85% and 7.47.
As to `COc1ccc(Cn2c(NCc3ccc(N)cn3)nc(=O)n(Cc3ccc(Cl)cc3)c2=O)cc1` [Cpd 4], the inhibition at 10 µM was determined as 94% and the pIC50 was 6.45.
In the case of `COc1ccc(Cn2c(NCc3cccc(C)n3)nc(=O)n(Cc3ccc(OC)cc3)c2=O)cc1` [Cpd 267], the inhibition at 10 µM amounted to 10% and the pIC50 is below 5.00.
For the molecule `Cc1cc(C)c(CNc2nc(=O)n(Cc3ccc(O)cc3)c(=O)n2Cc2ccc(OC(F)F)cc2)cn1` [Cpd 181], the inhibition at 10 µM came to 61% and the negative logarithm of the IC50 (pIC50) was 5.43.
Consider `Cc1cnc(CNc2nc(=O)n(Cc3ccc4c(c3)CCO4)c(=O)n2Cc2ccc(OC(F)F)cc2)cn1` [Cpd 261], for which the inhibition at 10 µM was determined as 87% and the pIC50 is 6.11.
Consider `COCCNc1ncccc1CNc1nc(=O)n(Cc2ccc(OC)cc2)c(=O)n1Cc1ccc(OC)cc1` [Cpd 50], for which the “Ca^2+ Mobilization % Inh @ 10 μM” value is 100%; the inhibition at 10 µM was 91%; the pIC50 was 7.62 and 7.14.
With `COc1ccc(Cn2c(NCc3cccnc3N)nc(=O)n(Cc3ccc(O)cc3)c2=O)cc1` [Cpd 54, 6-[(2-Amino-pyridin-3-ylmethyl)-amino]-3-(4-hydroxy-benzyl)-1-(4-methoxy-benzyl)-1H-[1,3,5]triazine-2,4-dione], the “Ca^2+ Mobilization % Inh @ 10 μM” value is 42% and 64%; the pIC50 is 5.46 and < 5.00.
In the case of `COc1ccc(Cn2c(NCc3cncnc3N)nc(=O)n(Cc3ccc(OC)cc3)c2=O)cc1` [Cpd 6], the inhibition at 10 µM is 90% and the pIC50 was 6.75.
In the case of `CCCNc1ncccc1CNc1nc(=O)n(Cc2ccc(F)cc2)c(=O)n1Cc1ccc(OC)cc1` [Cpd 15], the inhibition at 10 µM was 95% and the pIC50 was 6.49.
For the molecule `COc1ccc(Cn2c(NCc3c(C)cc(C)nc3N)nc(=O)n(Cc3ccc4c(c3)OCO4)c2=O)cc1` [Cpd 220], the inhibition at 10 µM was 98% and the pIC50 is 7.37.
With `CCCCCCn1c(NCc2cnc(C)cc2C)nc(=O)n(Cc2ccc(OC)cc2)c1=O` [Cpd 103], the inhibition at 10 µM worked out at 41% and the pIC50 is below 5.00.
For `COc1ccc(Cn2c(NCc3cccnc3N3CCOCC3)nc(=O)n(Cc3ccc(F)cc3)c2=O)cc1` [Cpd 17] the same measures were 73% and 5.61.
